Data reported in patent publication US8476197B2, “Aminopropenoates as fungicides” (priority 2009, dated 2013).
Marks after values point to notes of the source that are not given here.

Settings: pH 2.3

Log P	Structure (SMILES)
3.05	CCOC(=O)C(C#N)=C(NC(C)C(F)(F)F)c1cccnc1OC (racemic) [Compound 807]

Same assay, conditions: pH 2.7

Log P	Structure (SMILES)
4.21^[a]	CCOC(=O)C(C#N)=C(NCC(c1ccccc1)C(C)C)c1cccnc1Cl (racemic) [Compound 545]
3.48^[a]	CCOC(=O)C(C#N)=C(NC(C)c1ccc(Cl)cc1)c1ccncc1F (racemic) [Compound 546]
3.23^[a]	CCOC(=O)C(C#N)=C(NC1(c2c(F)cccc2F)CC1)c1cn(C)nc1C(C)F (racemic) [Compound 549]
3.78^[a]	CCOC(=O)C(C#N)=C(NC(c1ccc(N(C)C)cc1)C(F)(F)F)c1cn(C)nc1C(F)F (racemic) [Compound 556]
3.62^[a]	CCOC(=O)C(C#N)=C(NC(CC)c1ccccc1OC)c1cn(C)nc1C(F)F (racemic) [Compound 557]
3.87^[a]	CCOC(=O)C(C#N)=C(NC(CC)c1cccc(Cl)c1)c1cn(C)nc1C(F)F (racemic) [Compound 558]
1.13^[a]	CCOC(=O)C(C#N)=C(NC(C)CN(C)C)c1cn(C)nc1C(F)F (racemic) [Compound 578]
0.84^[a]	CCOC(=O)C(C#N)=C(NCC(C)N)c1cn(C)nc1C(F)F (racemic) [Compound 579]
1.63^[a]	CCOC(=O)C(C#N)=C(NC(C)CN(C)C)c1ncc(C(F)(F)F)cc1Cl (racemic) [Compound 583]
0.96^[a]	CCOC(=O)C(C#N)=C(NC(C)CN(C)C)c1c(C)nn(C)c1F (racemic) [Compound 584]
0.82^[a]	COC(=O)C(C#N)=C(NC(C)CN(C)C)c1cn(C)nc1C(F)F (racemic) [Compound 587]
1.41^[a]	CCOC(=O)C(C#N)=C(NC(C)CN(C)C)c1nsc(Cl)c1Cl (racemic) [Compound 588]
1.59^[a]	CCOC(=O)C(C#N)=C(NC(C)CN)c1ncc(C(F)(F)F)cc1Cl (racemic) [Compound 589]
1.5^[a]	CCOC(=O)C(C#N)=C(NC(C)C(N)=O)c1cn(C)nc1C(F)F (racemic) [Compound 590]
0.58^[a]	COC(=O)C(C#N)=C(NC(C)CN)c1cn(C)nc1C(F)F (racemic) [Compound 591]
2.17^[a]	CCOC(=O)C(C#N)=C(NC(C)C(N)=O)c1ncc(C(F)(F)F)cc1Cl (racemic) [Compound 592]
4.01^[a]	CCOC(=O)C(C#N)=C(NC(C)C(=O)Nc1ccc2ccccc2c1)c1sccc1C(F)(F)F (racemic) [Compound 653]
4.89^[a]	CCOC(=O)C(C#N)=C(NC(C)COc1c(C)cccc1C)c1sccc1C(F)(F)F (racemic) [Compound 654]
3.31^[a]	CCOC(=O)C(C#N)=C(NC(C)COC)c1sccc1C(F)(F)F (racemic) [Compound 655]
3.44^[a]	CCOC(=O)C(C#N)=C(NC(C)C(=O)OCC)c1sccc1C(F)(F)F (racemic) [Compound 656]
2.13^[a]	CCOC(=O)C(C#N)=C(NC(C)C(N)=O)c1sccc1C(F)(F)F (racemic) [Compound 660]
3.69^[a]	COC(=O)C(C#N)=C(NC(C)C(=O)Nc1ccc2ccccc2c1)c1sc(C)nc1C(F)(F)F (racemic) [Compound 661]

Log P	Structure (SMILES)
4.34^[a]	COC(=O)C(C#N)=C(NC(C)COc1c(C)cccc1C)c1sc(C)nc1C(F)(F)F (racemic) [Compound 662]
2.75^[a]	COCC(C)NC(=C(C#N)C(=O)OC)c1sc(C)nc1C(F)(F)F (racemic) [Compound 663]
2.96^[a]	CCOC(=O)C(C)NC(=C(C#N)C(=O)OC)c1sc(C)nc1C(F)(F)F (racemic) [Compound 664]
3.29^[a]	COC(=O)C(C#N)=C(NC(C(=O)OC)C(C)C)c1sc(C)nc1C(F)(F)F (racemic) [Compound 666]
1.78^[a]	COC(=O)C(C#N)=C(NC(C)C(N)=O)c1sc(C)nc1C(F)(F)F (racemic) [Compound 668]
3.89^[a]	CCOC(=O)C(C#N)=C(NC(C)C(=O)Nc1ccc2ccccc2c1)c1sccc1Br (racemic) [Compound 669]
4.86^[a]	CCOC(=O)C(C#N)=C(NC(C)COc1c(C)cccc1C)c1sccc1Br (racemic) [Compound 670]
3.33^[a]	CCOC(=O)C(C#N)=C(NC(C)C(=O)OCC)c1sccc1Br (racemic) [Compound 672]
2.84^[a]	CCOC(=O)C(C#N)=C(NC(C(=O)OC)C(C)C)c1cn(C)nc1C(F)F (racemic) [Compound 674]
3.99^[a]	CCOC(=O)C(C#N)=C(NC(C)C(=O)Nc1ccc2ccccc2c1)c1sc(C)nc1C(F)(F)F (racemic) [Compound 676]
4.7^[a]	CCOC(=O)C(C#N)=C(NC(C)COc1c(C)cccc1C)c1sc(C)nc1C(F)(F)F (racemic) [Compound 677]
3.11^[a]	CCOC(=O)C(C#N)=C(NC(C)COC)c1sc(C)nc1C(F)(F)F (racemic) [Compound 678]
3.29^[a]	CCOC(=O)C(C#N)=C(NC(C)C(=O)OCC)c1sc(C)nc1C(F)(F)F (racemic) [Compound 679]
3.64^[a]	CCOC(=O)C(C#N)=C(NC(C(=O)OC)C(C)C)c1sc(C)nc1C(F)(F)F (racemic) [Compound 681]
4.35^[a]	CCOC(=O)C(C#N)=C(NC(C)CC(C)C)c1cc(C)oc1C (racemic) [Compound 779]
3.46^[a]	CCOC(=O)C(C#N)=C(NC(C)CC(C)C)c1cn(C)nc1C(F)F (racemic) [Compound 780]
4.54^[a]	CCOC(=O)C(C#N)=C(NC(C)CC(C)C)c1sccc1C(F)(F)F (racemic) [Compound 781]
3.9^[a]	COC(=O)C(C#N)=C(NC(C)CC(C)C)c1sc(C)nc1C(F)(F)F (racemic) [Compound 782]
4.46^[a]	CCOC(=O)C(C#N)=C(NC(C)CC(C)C)c1sccc1Br (racemic) [Compound 783]
4.29^[a]	CCOC(=O)C(C#N)=C(NC(C)CC(C)C)c1sc(C)nc1C(F)(F)F (racemic) [Compound 784]
4.41^[a]	CCOC(=O)C(C#N)=C(NC(C)CC(C)C)c1ccsc1Br (racemic) [Compound 785]

Structure (SMILES)	Log P
CCOC(=O)C(C#N)=C(NC(C)c1ccc(C(C)C)cc1)c1cn(C)nc1C(F)F (racemic) [Compound 550]	4.2^[a]
CCOC(=O)C(C#N)=C(NC(C)c1ccc(Cl)cc1Cl)c1cn(C)nc1C(F)F (racemic) [Compound 552]	3.96^[a]
CCOC(=O)C(C#N)=C(NC(C)c1ccccc1Cl)c1cn(C)nc1C(F)F (racemic) [Compound 553]	3.46^[a]
CCOC(=O)C(C#N)=C(NC(C)c1cccc(Cl)c1)c1cn(C)nc1C(F)F (racemic) [Compound 554]	3.55^[a]
CCOC(=O)C(C#N)=C(NC(C(=O)OC)C(C)C)c1sccc1C(F)(F)F (racemic) [Compound 658]	3.62^[a]
CCOC(=O)C(C#N)=C(NC(C)COC)c1sccc1Br (racemic) [Compound 671]	3.17^[a]

Same assay, conditions: pH 7.5

Log P	Structure (SMILES)
2.13	COCC(C)NC(=C(C#N)C(=O)OC)c1cccnc1Cl (racemic) [Compound 564]
2.38	COC(=O)C(C#N)=C(NC(C)CSC)c1cccnc1Cl (racemic) [Compound 576]
3.04	CCOC(=O)C(C#N)=C(NC(C)C(F)(F)F)c1cccnc1OC (racemic) [Compound 807]

Structure (SMILES)	Log P
CCOC(=O)C(C#N)=C(NC(C)CC(C)C)c1cccnc1Cl (racemic) [Compound 778]	3.62
